Measurements taken from publication PMC4180945 (Tetrahedron, 2014).

Tests used:
[1] = target: GST-FKBP12 fusion protein (Homo sapiens, UniProt P62942); experiment: Selectivity binding to arbitrarily selected protein: GST-FKBP12
[2] = target: maltose-binding protein-XIAP BIR3 domain fusion (MBP-BIR3) (Homo sapiens, UniProt P98170); experiment: Selectivity binding to arbitrarily selected protein: MBP-BIR3
[3] = target: T1, protein-tyrosine phosphatase 1B (PTP1B) (Homo sapiens, UniProt P18031); experiment: Selectivity binding to arbitrarily selected protein: PTP1B
T1 sequence (P18031 1-435): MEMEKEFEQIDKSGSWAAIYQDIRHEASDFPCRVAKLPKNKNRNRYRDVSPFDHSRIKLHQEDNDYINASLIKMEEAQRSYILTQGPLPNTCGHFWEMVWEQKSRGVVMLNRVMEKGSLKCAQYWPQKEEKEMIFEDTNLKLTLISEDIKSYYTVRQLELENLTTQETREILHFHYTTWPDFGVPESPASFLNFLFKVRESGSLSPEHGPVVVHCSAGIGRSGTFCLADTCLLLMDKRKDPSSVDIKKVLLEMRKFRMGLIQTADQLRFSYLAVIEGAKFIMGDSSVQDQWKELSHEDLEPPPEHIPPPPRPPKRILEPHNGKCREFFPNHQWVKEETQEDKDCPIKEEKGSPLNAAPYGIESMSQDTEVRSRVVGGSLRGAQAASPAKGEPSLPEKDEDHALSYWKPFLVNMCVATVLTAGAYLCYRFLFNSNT

[4] = target: bovine serum albumin (BSA) (Bos taurus, UniProt P02769); experiment: Selectivity binding to arbitrarily selected protein: BSA
Sequence of bovine serum albumin (BSA) (P02769 25-607): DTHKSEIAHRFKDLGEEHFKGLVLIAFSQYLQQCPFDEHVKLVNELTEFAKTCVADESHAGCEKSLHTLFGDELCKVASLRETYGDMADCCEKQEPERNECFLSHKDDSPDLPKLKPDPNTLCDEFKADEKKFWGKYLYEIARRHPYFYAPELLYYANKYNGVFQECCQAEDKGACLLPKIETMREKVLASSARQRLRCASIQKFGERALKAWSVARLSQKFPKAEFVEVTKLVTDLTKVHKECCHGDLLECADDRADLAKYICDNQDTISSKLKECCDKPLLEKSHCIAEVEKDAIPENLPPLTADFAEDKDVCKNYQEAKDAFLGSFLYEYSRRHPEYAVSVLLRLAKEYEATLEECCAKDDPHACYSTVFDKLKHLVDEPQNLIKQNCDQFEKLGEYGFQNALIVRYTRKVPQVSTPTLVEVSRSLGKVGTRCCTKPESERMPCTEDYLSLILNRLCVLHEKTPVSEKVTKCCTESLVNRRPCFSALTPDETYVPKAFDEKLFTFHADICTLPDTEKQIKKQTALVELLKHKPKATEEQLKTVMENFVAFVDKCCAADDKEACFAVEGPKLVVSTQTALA

[5] = target: T2, GST-SHD SH2 domain fusion protein (Homo sapiens, UniProt Q96IW2); experiment: Selectivity binding to arbitrarily selected protein: GST-SHD SH2
T2 sequence (Q96IW2 240-335 limits assumed): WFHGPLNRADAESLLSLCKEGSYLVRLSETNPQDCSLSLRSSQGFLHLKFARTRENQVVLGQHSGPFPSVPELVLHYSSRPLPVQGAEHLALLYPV

Sequence of maltose-binding protein-XIAP BIR3 domain fusion (MBP-BIR3) (P98170 241-356 limits assumed): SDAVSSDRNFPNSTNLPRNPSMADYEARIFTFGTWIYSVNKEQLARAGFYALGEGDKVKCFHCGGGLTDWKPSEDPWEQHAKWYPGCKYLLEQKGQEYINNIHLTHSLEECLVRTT
Sequence of GST-FKBP12 fusion protein (P62942 whole entry, the tested form may be a part): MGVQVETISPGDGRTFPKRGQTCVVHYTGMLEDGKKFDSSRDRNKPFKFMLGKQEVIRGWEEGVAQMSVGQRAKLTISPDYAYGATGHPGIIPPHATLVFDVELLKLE

## Trp-phe-Asp-Lys-phe-asn-His-Dap [Peptide 38]
[1]
  Binding to GST-FKBP12: no binding
[2]
  Fold higher KD for MBP-BIR3 than that of K-Ras: 47-120 fold
[3]
  Binding to PTP1B: no binding
[4]
  Fold higher KD for BSA than that of K-Ras: 47-120 fold
[5]
  Fold higher KD for GST-SHD SH2 than that of K-Ras: 47-120 fold
